Our source for the relative viability values is the supplement of paper PMC10307832.

Common to all, as to test: relative viability (nuclei count vs DMSO), 5 days (fraction); higher = more cells survive
Compound in the test “XMD13-2 + AZD7762”: C1CC1C(=O)NC2=NNC3=C2C=CC(=C3)C4=CC(=CC=C4)C(=O)NC5CC5 [XMD13-2] + NC(=O)Nc1cc(-c2cccc(F)c2)sc1C(=O)N[C@H]1CCCNC1 [AZD7762] (partner 0.2 µM)
The method in brief: (§1)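 After 5 days of treatment, lung cancer cells in 1536-well plates were fixed and stained in a single step (final 0.05% Triton X-100, 1% formaldehyde, 1 ug/ml Hoechst) and their nuclei counted on 4× images. Treatment had been applied by pin tool the day after seeding as one drug alone or as a fixed anchor-drug dose with five library-drug doses (not always all listed) in √10 steps. Relative viability is the nuclei count of treated wells divided by that of vehicle wells, and values are medians of duplicate plates.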

Compound in the test “Dasatinib + Navitoclax”: Cc1nc(Nc2ncc(C(=O)Nc3c(C)cccc3Cl)s2)cc(N2CCN(CCO)CC2)n1 [Dasatinib] + CC1(C)CCC(c2ccc(Cl)cc2)=C(CN2CCN(c3ccc(C(=O)NS(=O)(=O)c4ccc(N[C@H](CCN5CCOCC5)CSc5ccccc5)c(S(=O)(=O)C(F)(F)F)c4)cc3)CC2)C1 [Navitoclax] (partner 0.5 µM)
An outline of the steps:
as §1

Compound in the test “ALW-II-49-7 + Navitoclax”: Cc1ccc(C(=O)Nc2cccc(C(F)(F)F)c2)cc1Nc1cncc(C(N)=O)c1 [ALW-II-49-7] + CC1(C)CCC(c2ccc(Cl)cc2)=C(CN2CCN(c3ccc(C(=O)NS(=O)(=O)c4ccc(N[C@H](CCN5CCOCC5)CSc5ccccc5)c(S(=O)(=O)C(F)(F)F)c4)cc3)CC2)C1 [Navitoclax] (partner 0.5 µM)
An outline of the steps:
as §1

Compound in the test “XMD13-2 + Lapatinib”: C1CC1C(=O)NC2=NNC3=C2C=CC(=C3)C4=CC(=CC=C4)C(=O)NC5CC5 [XMD13-2] + CS(=O)(=O)CCNCc1ccc(-c2ccc3ncnc(Nc4ccc(OCc5cccc(F)c5)c(Cl)c4)c3c2)o1 [Lapatinib] (partner 2 µM)
The method in brief:
as §1

For HCC-78, the relative viability came out at 0.763 with XMD13-2 + AZD7762 (first compound 0.05 µM); 0.973 with XMD13-2 + AZD7762 (first compound 0.1581 µM); 0.557 with XMD13-2 + AZD7762 (first compound 0.5 µM); 0.475 in the test with XMD13-2 + AZD7762 (first compound 1.581 µM); 0.705 in the test with XMD13-2 + AZD7762 (first compound 5 µM); 0.619 with Dasatinib + Navitoclax (first compound 0.005 µM). Besides, the relative viability is 0.58 in the test with Dasatinib + Navitoclax (first compound 0.01581 µM); 0.688 in the test with Dasatinib + Navitoclax (first compound 0.05 µM); 0.601 with Dasatinib + Navitoclax (first compound 0.1581 µM); 0.247 in the test with Dasatinib + Navitoclax (first compound 0.5 µM); 1.01 with ALW-II-49-7 + Navitoclax (first compound 0.08 µM); 0.682 with ALW-II-49-7 + Navitoclax (first compound 0.253 µM). In addition, the relative viability in the test with ALW-II-49-7 + Navitoclax (first compound 0.8 µM) stood at 0.787; with ALW-II-49-7 + Navitoclax (first compound 2.53 µM), 0.744; in the test with ALW-II-49-7 + Navitoclax (first compound 8 µM) it was 0.641; in the test with XMD13-2 + Lapatinib (first compound 0.05 µM) it was 1.2; with XMD13-2 + Lapatinib (first compound 0.1581 µM), 0.775; with XMD13-2 + Lapatinib (first compound 0.5 µM), 0.782. For the same cell line, the relative viability with XMD13-2 + Lapatinib (first compound 1.581 µM) amounted to 0.616; with XMD13-2 + Lapatinib (first compound 5 µM), 0.521.

HCC-366: the relative viability with XMD13-2 + AZD7762 (first compound 0.05 µM) is 0.325; in the test with XMD13-2 + AZD7762 (first compound 0.1581 µM), 0.388; with XMD13-2 + AZD7762 (first compound 0.5 µM), 0.308; with XMD13-2 + AZD7762 (first compound 1.581 µM) it was 0.427; with XMD13-2 + AZD7762 (first compound 5 µM) it was 0.355; in the test with Dasatinib + Navitoclax (first compound 0.005 µM), 0.561. Moreover, the relative viability with Dasatinib + Navitoclax (first compound 0.01581 µM) is 0.601; with Dasatinib + Navitoclax (first compound 0.05 µM) it was 0.39; with Dasatinib + Navitoclax (first compound 0.1581 µM) it was 0.569; in the test with Dasatinib + Navitoclax (first compound 0.5 µM), 0.217; with ALW-II-49-7 + Navitoclax (first compound 0.08 µM), 1.04; with ALW-II-49-7 + Navitoclax (first compound 0.253 µM) it was 1.29. Besides, the relative viability with ALW-II-49-7 + Navitoclax (first compound 0.8 µM) came to 1.08; with ALW-II-49-7 + Navitoclax (first compound 2.53 µM), 1.11; in the test with ALW-II-49-7 + Navitoclax (first compound 8 µM), 1.11; with XMD13-2 + Lapatinib (first compound 0.05 µM), 1.3; with XMD13-2 + Lapatinib (first compound 0.1581 µM), 1.04; in the test with XMD13-2 + Lapatinib (first compound 0.5 µM) it was 1.07. In addition, the results for the relative viability with XMD13-2 + Lapatinib (first compound 1.581 µM) and with XMD13-2 + Lapatinib (first compound 5 µM) were 1.09 and 1.12, respectively.

Turning to HCC-827, the relative viability in the test with XMD13-2 + AZD7762 (first compound 0.05 µM) came out at 0.199; with XMD13-2 + AZD7762 (first compound 0.1581 µM) it was 0.22; with XMD13-2 + AZD7762 (first compound 0.5 µM) it was 0.207; with XMD13-2 + AZD7762 (first compound 1.581 µM), 0.202; in the test with XMD13-2 + AZD7762 (first compound 5 µM), 0.224; with Dasatinib + Navitoclax (first compound 0.005 µM) it was 1.01. Further, the relative viability came out at 1.01 with Dasatinib + Navitoclax (first compound 0.01581 µM); 1.01 with Dasatinib + Navitoclax (first compound 0.05 µM); 0.719 with Dasatinib + Navitoclax (first compound 0.1581 µM); 0.188 with Dasatinib + Navitoclax (first compound 0.5 µM); 0.981 with ALW-II-49-7 + Navitoclax (first compound 0.08 µM); 1.05 in the test with ALW-II-49-7 + Navitoclax (first compound 0.253 µM). The relative viability in the test with ALW-II-49-7 + Navitoclax (first compound 0.8 µM) is 1.08; with ALW-II-49-7 + Navitoclax (first compound 2.53 µM) it was 1.01; with ALW-II-49-7 + Navitoclax (first compound 8 µM) it was 0.987; with XMD13-2 + Lapatinib (first compound 0.05 µM), 0.19; in the test with XMD13-2 + Lapatinib (first compound 0.1581 µM) it was 0.2; with XMD13-2 + Lapatinib (first compound 0.5 µM), 0.172. Further, the relative viability stood at 0.243 in the test with XMD13-2 + Lapatinib (first compound 1.581 µM) and 0.2 with XMD13-2 + Lapatinib (first compound 5 µM).

As for HOP-62, the relative viability in the test with XMD13-2 + AZD7762 (first compound 0.05 µM) was found to be 0.917; with XMD13-2 + AZD7762 (first compound 0.1581 µM), 0.799; in the test with XMD13-2 + AZD7762 (first compound 0.5 µM) it was 0.867; with XMD13-2 + AZD7762 (first compound 1.581 µM) it was 0.598; with XMD13-2 + AZD7762 (first compound 5 µM), 0.409; in the test with Dasatinib + Navitoclax (first compound 0.005 µM) it was 1.02. Further, the relative viability came out at 1.01 in the test with Dasatinib + Navitoclax (first compound 0.01581 µM); 0.829 in the test with Dasatinib + Navitoclax (first compound 0.05 µM); 1.09 in the test with Dasatinib + Navitoclax (first compound 0.1581 µM); 0.372 in the test with Dasatinib + Navitoclax (first compound 0.5 µM); 1.03 in the test with ALW-II-49-7 + Navitoclax (first compound 0.08 µM); 0.866 in the test with ALW-II-49-7 + Navitoclax (first compound 0.253 µM). Moreover, the relative viability with ALW-II-49-7 + Navitoclax (first compound 0.8 µM) turned out to be 1.02; with ALW-II-49-7 + Navitoclax (first compound 2.53 µM), 0.485; with ALW-II-49-7 + Navitoclax (first compound 8 µM), 0.67; in the test with XMD13-2 + Lapatinib (first compound 0.05 µM) it was 1.17; in the test with XMD13-2 + Lapatinib (first compound 0.1581 µM), 1.02; in the test with XMD13-2 + Lapatinib (first compound 0.5 µM), 1.09. The relative viability with XMD13-2 + Lapatinib (first compound 1.581 µM) worked out at 1.25; with XMD13-2 + Lapatinib (first compound 5 µM), 1.07.

Turning to IA-LM, the relative viability with Dasatinib + Navitoclax (first compound 0.005 µM) came out at 0.878; in the test with Dasatinib + Navitoclax (first compound 0.01581 µM), 0.923; in the test with Dasatinib + Navitoclax (first compound 0.05 µM), 1.04; with Dasatinib + Navitoclax (first compound 0.1581 µM), 0.876; with Dasatinib + Navitoclax (first compound 0.5 µM) it was 0.665; in the test with ALW-II-49-7 + Navitoclax (first compound 0.08 µM) it was 0.84. The relative viability was found to be 0.551 with ALW-II-49-7 + Navitoclax (first compound 0.253 µM); 0.689 in the test with ALW-II-49-7 + Navitoclax (first compound 0.8 µM); 0.213 with ALW-II-49-7 + Navitoclax (first compound 2.53 µM); 0.0967 with ALW-II-49-7 + Navitoclax (first compound 8 µM); 0.812 with XMD13-2 + Lapatinib (first compound 0.05 µM); 0.869 with XMD13-2 + Lapatinib (first compound 0.1581 µM). Also, the relative viability in the test with XMD13-2 + Lapatinib (first compound 0.5 µM) stood at 0.751; with XMD13-2 + Lapatinib (first compound 1.581 µM) it was 0.682; with XMD13-2 + Lapatinib (first compound 5 µM), 0.47.

Take LCLC-103H: the relative viability with XMD13-2 + AZD7762 (first compound 0.05 µM) came to 0.774; with XMD13-2 + AZD7762 (first compound 0.1581 µM), 0.778; in the test with XMD13-2 + AZD7762 (first compound 0.5 µM), 0.768; in the test with XMD13-2 + AZD7762 (first compound 1.581 µM), 0.818; with XMD13-2 + AZD7762 (first compound 5 µM), 0.85.

With NCI-H358, the relative viability was 0.633 with XMD13-2 + AZD7762 (first compound 0.05 µM); 0.537 with XMD13-2 + AZD7762 (first compound 0.1581 µM); 0.515 with XMD13-2 + AZD7762 (first compound 0.5 µM); 0.442 with XMD13-2 + AZD7762 (first compound 1.581 µM); 0.414 with XMD13-2 + AZD7762 (first compound 5 µM); 0.566 with XMD13-2 + Lapatinib (first compound 0.05 µM). Besides, the relative viability with XMD13-2 + Lapatinib (first compound 0.1581 µM) came out at 0.463; with XMD13-2 + Lapatinib (first compound 0.5 µM), 0.471; with XMD13-2 + Lapatinib (first compound 1.581 µM), 0.404; with XMD13-2 + Lapatinib (first compound 5 µM), 0.322.

Take NCI-H441: the relative viability with XMD13-2 + AZD7762 (first compound 0.05 µM) was 1.17; with XMD13-2 + AZD7762 (first compound 0.1581 µM) it was 1.29; in the test with XMD13-2 + AZD7762 (first compound 0.5 µM), 1.18; with XMD13-2 + AZD7762 (first compound 1.581 µM), 1.14; with XMD13-2 + AZD7762 (first compound 5 µM), 1.04; with Dasatinib + Navitoclax (first compound 0.005 µM) it was 0.579. Moreover, the relative viability is 0.544 with Dasatinib + Navitoclax (first compound 0.01581 µM); 0.456 with Dasatinib + Navitoclax (first compound 0.05 µM); 0.241 with Dasatinib + Navitoclax (first compound 0.1581 µM); 0.135 in the test with Dasatinib + Navitoclax (first compound 0.5 µM); 0.591 with ALW-II-49-7 + Navitoclax (first compound 0.08 µM); 0.61 in the test with ALW-II-49-7 + Navitoclax (first compound 0.253 µM). Further, the values for the relative viability with ALW-II-49-7 + Navitoclax (first compound 0.8 µM), in the test with ALW-II-49-7 + Navitoclax (first compound 2.53 µM) and with ALW-II-49-7 + Navitoclax (first compound 8 µM) were 0.673, 0.572 and 0.745, respectively.

On to NCI-H520, for which the relative viability with Dasatinib + Navitoclax (first compound 0.005 µM) was found to be 0.946; in the test with Dasatinib + Navitoclax (first compound 0.01581 µM), 0.644; with Dasatinib + Navitoclax (first compound 0.05 µM), 0.555; with Dasatinib + Navitoclax (first compound 0.1581 µM), 0.273; with Dasatinib + Navitoclax (first compound 0.5 µM), 0.27; with ALW-II-49-7 + Navitoclax (first compound 0.08 µM), 1.04. Also, the relative viability in the test with ALW-II-49-7 + Navitoclax (first compound 0.253 µM) was 1.23; with ALW-II-49-7 + Navitoclax (first compound 2.53 µM), 1.03; with ALW-II-49-7 + Navitoclax (first compound 8 µM), 1.01; in the test with XMD13-2 + Lapatinib (first compound 0.05 µM) it was 1.06; in the test with XMD13-2 + Lapatinib (first compound 0.1581 µM), 0.923; in the test with XMD13-2 + Lapatinib (first compound 0.5 µM), 0.924. Besides, the results for the relative viability in the test with XMD13-2 + Lapatinib (first compound 1.581 µM) and with XMD13-2 + Lapatinib (first compound 5 µM) were 0.717 and 0.354, respectively.

For the cell line NCI-H522, the relative viability stood at 1.08 in the test with XMD13-2 + AZD7762 (first compound 0.05 µM); 0.728 with XMD13-2 + AZD7762 (first compound 0.1581 µM); 0.7 with XMD13-2 + AZD7762 (first compound 0.5 µM); 0.737 with XMD13-2 + AZD7762 (first compound 1.581 µM); 0.692 in the test with XMD13-2 + AZD7762 (first compound 5 µM).
